Laboratory results as given in US20180055868A1, “METHODS AND COMPOSITIONS FOR STIMULATING BONE REGENERATION” (New York University, priority 2012, published 2018).

Legend:
[1] = tested on: trephined calvarium bone defect; test: Trephined 3 mm calvarial defect, collagen matrix reinjected daily, microCT bone regeneration (Example 2); type: in vivo, mice; conditions: 8 weeks post trephination; for concentration achieving maximal effect on bone regeneration / dose dependence of effect on bone regeneration: FIG. 3; for effect on bone regeneration: microCT, FIG. 2
Protocol: In FIG. 2B, the percentage bone regeneration is calculated as the percent of the original defect that was now filled with bone.
(§1) A 3 mm portion of the calvarium was trephined with a drill followed by implantation of a collagen matrix soaked in either a vehicle or a pharmacologic agent and/or receptor antagonists to promote bone regeneration. The matrix was reinjected daily with the agent for periods ranging from 2-8 weeks prior to harvest of the mice and examination of the calvaria. […] Experiments were performed with specific agonists and antagonists at varying doses, and specific receptor agonists were tested on corresponding knockout mice to better confirm the role of the indicated receptor.
(§2) Some of the calvaria were decalcified, and histochemical and immunohistochemical staining and microscopic analyses were performed. Other calvaria were cleaned of adherent tissue and subject to microCT analysis for bone defect size and percent regeneration measures.

[2] = tested on: trephined calvarium bone defect in A2BKO mice; test: Calvarial defect bone regeneration in A2B receptor knockout (A2BKO) mice; type: in vivo; conditions: 8 weeks post trephination, FIG. 5
Protocol: as §1

[3] = tested on: osteoblasts and osteoclasts in the regenerating bone; test: Histochemical and immunohistochemical staining of regenerating calvarial bone sections; type: in vivo, mice; conditions: for TRAP stained osteoclasts in the regenerating bone / alkaline phosphatase positive osteoblasts in the regenerating bone / RANK+ cells in the regenerating bone / RANKL+ cells in the regenerating bone / osteoprotegerin+ cells in the regenerating bone: cells/hpf vs control; for TRAP stained osteoclasts in the regenerating bone / alkaline phosphatase positive osteoblasts in the regenerating bone: FIG. 7; for bone formation shown histologically: histology of calvaria, FIG. 9; for RANK+ cells in the regenerating bone / RANKL+ cells in the regenerating bone / osteoprotegerin+ cells in the regenerating bone: immunohistochemistry, FIG. 8
Text: Shown in FIG. 7A are representative medium powered fields of calvarial sections stained immunohistochemically for alkaline phosphatase (left hand column, a marker for osteoblasts). Shown in the next column of figures are sections stained histochemically for tartrate resistant acid phosphatase (a marker for osteoclasts). Arrows in these figures point to osteoblasts (first column) or osteoclasts (second column).
Paraffin embedded sections are stained immunohistochemically for RANK, RANKL or osteoprotegerin. Slides are imaged and positive cells (brown) are enumerated in three fields. Shown on the left are representative medium power sections of immunohistochemcically stained sections.
Staining of decalcified bone sections for osteoclasts (TRAP staining) and osteoblasts (alkaline phosphatase staining) was performed. Immunostaining for other markers of osteoclast (cathepsin K) lineage and other molecules of interest (e.g. semaphorin 4D, plexin-B1, nuclear b-catenin) were performed.
as §2

[4] = tested on: peripheral blood monocytes; conditions: effect mediated by adenosine acting at A1 receptors; cited from earlier work
A3 adenosine receptor = biological target: T1, A3 adenosine receptor (Homo sapiens, UniProt P0DMS8); conditions: cited from earlier work
T1 sequence (P0DMS8 1-318): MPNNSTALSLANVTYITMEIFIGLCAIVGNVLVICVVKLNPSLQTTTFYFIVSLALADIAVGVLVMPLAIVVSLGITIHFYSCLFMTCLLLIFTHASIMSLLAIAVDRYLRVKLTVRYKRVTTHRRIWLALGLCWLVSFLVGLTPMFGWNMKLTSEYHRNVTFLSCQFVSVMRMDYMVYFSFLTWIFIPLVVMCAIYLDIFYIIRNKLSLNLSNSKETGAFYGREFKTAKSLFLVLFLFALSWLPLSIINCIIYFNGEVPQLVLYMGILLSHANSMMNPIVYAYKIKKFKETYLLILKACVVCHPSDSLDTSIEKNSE

defect in mouse calvaria = test: 3 mm mouse calvarial bone defect with drug-soaked collagen matrix, microCT (Example 1); type: in vivo, C57B6 mice; conditions: collagen matrix in 3 mm calvarial defect, 8 weeks
Protocol: . Under general anesthesia a 3 mm in diameter defect is drilled into the skull of C57B6 mice. […]. The matrix is then reinjected with 100 μl of these agents daily for 8 weeks before harvest. […] FIG. 1B represents the percentage bone regeneration calculated as the percent of the original defect that was now filled with bone. Shown are the means (+SD) of results obtained in 3 animals for each condition. Results were analyzed by ANOVA. ***p<0.001
A 3 mm in diameter defect was created in mouse calvaria into which was fit a collagen matrix. […].

In the case of `N#Cc1c(N)nc(SCC(N)=O)c(C#N)c1-c1ccc(OCC2CC2)cc1` [BAY606583], the “concentration achieving maximal effect on bone regeneration” value (shortened to “concentration achieving maximal effect”) [1] was 1 µM, the “dose dependence of effect on bone regeneration” value (from here on “dose dependence of effect”) [1] was “dose-dependent” and the “effect on bone regeneration” value [1] was “stimulate bone regeneration”.
For `CCNC(=O)[C@H]1O[C@@H](n2cnc3c(N)nc(NCCc4ccc(CCC(=O)O)cc4)nc32)[C@H](O)[C@@H]1O` [CGS21680], the “concentration achieving maximal effect” value [1] was 1 µM, the “dose dependence of effect” value [1] was “dose-dependent” and the “effect on bone regeneration” value [1] was “stimulate bone regeneration”. The “effect of the agent on bone regeneration upon deletion of the A2B receptor” value [2] was “reverses the effect”, the “TRAP stained osteoclasts in the regenerating bone” value (“TRAP stained osteoclasts” below) [3] was “reduce” and the “alkaline phosphatase positive osteoblasts in the regenerating bone” value [3] was “increase”. The “bone formation shown histologically” value [3] was “bone formation”, the “RANK+ cells in the regenerating bone” value [3] was “reduction” and the “RANKL+ cells in the regenerating bone” value [3] was “reduction”. The “osteoprotegerin+ cells in the regenerating bone” value (from here on “osteoprotegerin+ cells”) [3] was “increase”.
With `CCCn1c(=O)c2[nH]c(C3CCCC3)nc2n(CCC)c1=O` [DPCPX, 8-Cyclopentyl-1,3-dipropylxanthine] the “concentration achieving maximal effect” value [1] was 1 µM, the “dose dependence of effect” value [1] was “dose-dependent” and the “effect on bone regeneration” value [1] was “stimulate bone regeneration”. The “effect of the agent on bone regeneration upon deletion of the A2B receptor” value [2] was “reverses the effect”, the “TRAP stained osteoclasts” value [3] was “reduce” and the “alkaline phosphatase positive osteoblasts in the regenerating bone” value [3] was “increase”. The “bone formation shown histologically” value [3] was “bone formation”, the “RANK+ cells in the regenerating bone” value [3] was “reduction” and the “RANKL+ cells in the regenerating bone” value [3] was “reduction”. For the same compound, the “osteoprotegerin+ cells” value [3] was “increase”.
In the case of `CN(Cc1cnc2nc(N)nc(N)c2n1)c1ccc(C(=O)N[C@@H](CCC(=O)O)C(=O)O)cc1` [Methotrexate], the giant cell formation [4] is given as “increases giant cell formation”.
For `Nc1nc(NCCc2ccc(O)cc2)nc2nc(-c3ccco3)nn12` [ZM241385], the “effect of antagonist on bone regeneration promoted by dipyridamole” value ([1]; FIG. 4) was “blocks the effect” and the “effect of antagonist on bone regeneration promoted by the A2A agonist CGS21680” value ([1]; FIG. 4) was “blocks the effect”.
In the case of `CNC(=O)[C@H]1O[C@@H](n2cnc3c(NCc4cccc(I)c4)ncnc32)[C@H](O)[C@@H]1O` [adenosine A3 receptor agonist], the “concentration achieving maximal effect” value [1] was 1 µM, the “dose dependence of effect” value [1] was “dose-dependent” and the “effect on bone regeneration” value [1] was “no effect”.
In the case of `Nc1ncnc2c1ncn2[C@@H]1O[C@H](CO)[C@@H](O)[C@H]1O` [adenosine], the affinity for adenosine (A3 adenosine receptor) is given as “low-micromolar range”.
With `OCCN(CCO)c1nc(N2CCCCC2)c2nc(N(CCO)CCO)nc(N3CCCCC3)c2n1` [dipyridamole] the “effect on bone regeneration” value (defect in mouse calvaria) was “stimulates bone regeneration”, the “concentration achieving maximal effect” value [1] was 1 µM and the “dose dependence of effect” value [1] was “dose-dependent”. The “effect on bone regeneration” value [1] was “promotes bone regeneration”, the “TRAP stained osteoclasts” value [3] was “reduce” and the “alkaline phosphatase positive osteoblasts in the regenerating bone” value [3] was “increase”. For the same compound, the “bone formation shown histologically” value [3] was “bone formation”, the “RANK+ cells in the regenerating bone” value [3] was “reduction” and the “RANKL+ cells in the regenerating bone” value [3] was “reduction”. The “osteoprotegerin+ cells” value [3] was “increase”.
